Assay results taken from patent publication EP1145714A1, “DRUGS” (Takeda Chemical Industries, Ltd., priority 1998, dated 2000).

Tested on: acute vomiting induced by a central emetic agent loperamide in dogs
Assay: Acute vomiting induced by loperamide in dogs
Assay type: in vivo, beagle dogs
Conditions: loperamide 1 mg/kg subcutaneous
Description: 3 male or female beagle dogs (7.7 to 12.7 kg) per one group were used. Loperamide was subcutaneously given at 1 mg/ml/kg. 2.5 hours prior to loperamide administration, a small amount of a feed was given to the animals. 30 minutes thereafter, predetermined doses of the compound No. 3 were orally given. Similarly, 0.5 % methyl cellulose solution was orally given to a control animal group under no fasting. Predetermined doses of naloxone and ondansetron were given intravenously and orally, respectively to the animals under fasting, 30 minutes prior to loperamide administration. The frequency of vomiting was counted, up to 3 hours after loperamide administration. The compound No. 3 was dissolved in 0.5 % methyl cellulose solution, for oral dosing at a ratio of 0.25 to 1 ml per 1 kg body weight. Additionally, naloxone was intravenously given in a solution at a concentration of 0.05 % w/v. An injection of ondansetron at a concentration of 0.2 % w/v was orally given. Still additionally, 0.5 % methyl cellulose solution was orally given at a ratio of 1 ml per 1 kg body weight. The data relating to the frequency of vomiting, the latency and the time period from the occurrence of vomiting to the termination thereof were statistically analyzed by the Dunnett test, with reference to the difference from the control group.
The vomiting suppression ratio was calculated by the following formula. [Frequency of retching or vomiting in control] - [Frequency of retching or vomiting in animals dosed with compound No. 3] / [frequency of retching or vomiting in control] x 100 (%) [formula]

C=CCN1CC[C@]23c4c5ccc(O)c4O[C@H]2C(=O)CC[C@@]3(O)[C@H]1C5 [Naloxone, naloxone, reference compound]
Vomiting suppression ratio (0.5 mg/kg i.v.): 93 % b | B: Frequency of vomiting (mean ± SD) (0.5 mg/kg i.v., 3 hours): 0.7 ± 0.7 b | C: Time period until first vomiting (minute; mean ± SD) (0.5 mg/kg i.v., 3 hours): 2.61± 0.39b minute | D: Duration of vomiting (minute; mean ± SD) (0.5 mg/kg i.v., 3 hours): 0.01 ± 0.01 b minute | Number of dogs with vomiting/number of tested dogs (0.5 mg/kg i.v., 3 hours): 1/3 | Effect on vomiting (in words) (0.5 mg/kg intravenous): almost completely suppressed
